{"source": "patent US7521207B2", "about": "“Rhesus monkey Nur77” (Merck & Co., Inc., priority 2005, dated 2009)", "key": {"[1]": {"tested_on": "Nur77 expression in 22RV1 cells", "assay": "Expression of Nur77 in prostrate cancer cells (FIG. 5)", "format": "cell-based", "details": "prostrate cancer cells (22RV1 cells), to various extents"}, "[2]": {"tested_on": "Nur77 expression in the seminal vesicles", "details": "orchiectomized (ORX) rats, FIG. 6, to various extents"}}}
{"smiles": "C[C@]12CCC(=O)C[C@@H]1CC[C@@H]1[C@@H]2CC[C@]2(C)[C@@H](O)CC[C@@H]12", "note": "[DHT, dihydrotestosterone]", "values": [{"measurement": "expression of Nur77", "setting": "[1]", "value": "can be controlled"}, {"measurement": "expression of Nur77", "setting": "[2]", "value": "can be modulated"}]}
